Assay results from ChEMBL document CHEMBL4011597, “Synthesis, screening and docking of fused pyrano[3,2-d]pyrimidine derivatives as xanthine oxidase inhibitor” (Eur J Med Chem, 2017).

Tests used:
[1] = molecular target: T1, Xanthine dehydrogenase/oxidase (Bos taurus, UniProt P80457); assay: Inhibition of bovine xanthine oxidase assessed as reduction in uric acid formation at 1 uM using xanthine as substrate pretreated for 5 mins followed by substrate addition measured by UV-vis spectrophotometric method relative to control; settings: cattle
T1 sequence (P80457 whole entry): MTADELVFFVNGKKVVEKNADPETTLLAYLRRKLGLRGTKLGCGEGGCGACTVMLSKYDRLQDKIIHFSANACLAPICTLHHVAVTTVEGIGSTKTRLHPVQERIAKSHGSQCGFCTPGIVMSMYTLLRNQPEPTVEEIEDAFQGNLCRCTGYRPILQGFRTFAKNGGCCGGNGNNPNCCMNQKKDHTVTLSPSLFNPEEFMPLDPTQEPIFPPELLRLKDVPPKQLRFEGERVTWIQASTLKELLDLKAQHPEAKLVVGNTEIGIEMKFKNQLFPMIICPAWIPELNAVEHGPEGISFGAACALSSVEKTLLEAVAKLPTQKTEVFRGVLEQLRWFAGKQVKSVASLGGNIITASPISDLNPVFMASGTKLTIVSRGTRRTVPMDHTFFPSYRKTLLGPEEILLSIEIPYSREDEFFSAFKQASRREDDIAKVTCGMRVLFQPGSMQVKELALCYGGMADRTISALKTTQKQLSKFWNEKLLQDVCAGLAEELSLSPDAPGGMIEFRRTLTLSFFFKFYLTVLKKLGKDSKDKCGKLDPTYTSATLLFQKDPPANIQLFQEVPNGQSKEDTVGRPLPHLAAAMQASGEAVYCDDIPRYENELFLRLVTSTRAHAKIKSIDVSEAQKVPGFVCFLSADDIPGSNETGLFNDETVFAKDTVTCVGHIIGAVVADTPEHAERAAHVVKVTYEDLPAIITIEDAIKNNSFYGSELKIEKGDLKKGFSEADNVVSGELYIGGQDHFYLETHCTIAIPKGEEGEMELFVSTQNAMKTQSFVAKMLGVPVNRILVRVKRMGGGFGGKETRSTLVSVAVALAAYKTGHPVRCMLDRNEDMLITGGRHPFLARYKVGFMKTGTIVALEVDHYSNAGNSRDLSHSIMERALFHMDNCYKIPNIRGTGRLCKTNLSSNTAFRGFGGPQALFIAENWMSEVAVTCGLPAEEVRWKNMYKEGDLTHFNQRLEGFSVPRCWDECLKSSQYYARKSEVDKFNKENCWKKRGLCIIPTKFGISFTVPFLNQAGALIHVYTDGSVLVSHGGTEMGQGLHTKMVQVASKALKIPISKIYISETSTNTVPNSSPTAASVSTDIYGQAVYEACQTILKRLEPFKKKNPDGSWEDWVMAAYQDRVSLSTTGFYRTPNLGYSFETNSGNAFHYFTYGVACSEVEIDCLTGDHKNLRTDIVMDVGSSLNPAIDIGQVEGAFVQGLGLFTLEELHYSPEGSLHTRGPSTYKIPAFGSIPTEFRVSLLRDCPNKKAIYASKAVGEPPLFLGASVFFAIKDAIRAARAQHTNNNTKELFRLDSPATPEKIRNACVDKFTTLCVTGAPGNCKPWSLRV

[2] = molecular target: T1, Xanthine dehydrogenase/oxidase; assay: Inhibition of bovine xanthine oxidase assessed as reduction in uric acid formation at 10 uM using xanthine as substrate pretreated for 5 mins followed by substrate addition measured by UV-vis spectrophotometric method relative to control; settings: cattle
[3] = molecular target: T1, Xanthine dehydrogenase/oxidase; assay: Inhibition of bovine xanthine oxidase assessed as reduction in uric acid formation at 100 uM using xanthine as substrate pretreated for 5 mins followed by substrate addition measured by UV-vis spectrophotometric method relative to control; settings: cattle
[4] = molecular target: T1, Xanthine dehydrogenase/oxidase; assay: Inhibition of bovine xanthine oxidase assessed as reduction in uric acid formation using xanthine as substrate pretreated for 5 mins followed by substrate addition measured by UV-vis spectrophotometric method

Compound	inhibition at 1 µM [1] [%]	inhibition at 10 µM [2] [%]	inhibition at 100 µM [3] [%]	IC50 [4] [µM]
COc1ccc(Nc2ncnc3c2C(c2cc(OC)c(OC)c(OC)c2)c2c(c(=O)oc4ccccc24)O3)cc1 (configuration not stated)	26.2	37.2	74.5	42
COc1ccc(Nc2ncnc3c2C(c2cccc(O)c2)c2c(ccc4ccccc24)O3)cc1 (configuration not stated)	–	–	28.1	–
COc1ccc(Nc2ncnc3c2C(c2cccc(C)c2)c2c(c(=O)oc4ccccc24)O3)cc1 (configuration not stated)	28.7	39.1	78.2	37
COc1ccc(Nc2ncnc3c2C(c2ccccc2OC)C2=C(CCCC2=O)O3)cc1 (configuration not stated)	34.8	43.2	86.5	24
COc1ccc(Nc2ncnc3c2C(c2ccc(Cl)cc2)c2c(ccc4ccccc24)O3)cc1 (configuration not stated)	–	–	17.2	–
COc1ccc(Nc2ncnc3c2C(c2ccc(O)cc2)c2c(c(=O)oc4ccccc24)O3)cc1 (configuration not stated)	30.9	41.2	82.4	30
COc1ccc(Nc2ncnc3c2C(c2ccncc2)c2c(n[nH]c2C)O3)cc1 (configuration not stated)	–	–	15.1	–
COc1ccc(Nc2ncnc3c2C(c2ccc([N+](=O)[O-])cc2)c2c(ccc4ccccc24)O3)cc1 (configuration not stated)	–	–	11	–
COc1ccc(Nc2ncnc3c2C(c2ccccc2OC)c2c(c(=O)oc4ccccc24)O3)cc1 (configuration not stated)	30.2	41.1	83.6	29
COc1ccc(Nc2ncnc3c2C(c2ccccc2)c2c(ccc4ccccc24)O3)cc1 (configuration not stated)	–	–	20.2	–
COc1ccc(Nc2ncnc3c2C(c2ccc(O)c(O)c2)c2c(n[nH]c2C)O3)cc1 (configuration not stated)	23.5	31.6	60.6	68
COc1ccc(Nc2ncnc3c2C(c2cccc([N+](=O)[O-])c2)c2c(c(=O)oc4ccccc24)O3)cc1 (configuration not stated)	20.2	31.5	63.6	65
COc1ccc(Nc2ncnc3c2C(c2ccc(O)cc2)C2=C(CCCC2=O)O3)cc1 (configuration not stated)	30.5	42.4	84.8	28
COc1ccc(Nc2ncnc3c2C(c2ccc([N+](=O)[O-])cc2)c2c(n[nH]c2C)O3)cc1 (configuration not stated)	–	–	25.7	–
COc1ccc(Nc2ncnc3c2C(c2ccc(F)cc2)c2c(ccc4ccccc24)O3)cc1 (configuration not stated)	–	–	19.6	–
COc1ccc(Nc2ncnc3c2C(c2ccccc2)C2=C(CCCC2=O)O3)cc1 (configuration not stated)	29.1	37.5	75.4	40
COc1ccc(Nc2ncnc3c2C(c2ccc(Br)cc2)c2c(ccc4ccccc24)O3)cc1 (configuration not stated)	–	–	16.5	–
COc1ccc(Nc2ncnc3c2C(c2cccc([N+](=O)[O-])c2)c2c(n[nH]c2C)O3)cc1 (configuration not stated)	–	–	28.9	–
COc1ccc(Nc2ncnc3c2C(c2ccccc2OC)c2c(ccc4ccccc24)O3)cc1 (configuration not stated)	–	–	30.1	–
COc1ccc(Nc2ncnc3c2C(c2ccc(OC)c(OC)c2)c2c(c(=O)oc4ccccc24)O3)cc1 (configuration not stated)	36.7	48	94	17
COc1ccc(Nc2ncnc3c2C(c2ccc(OC)c(OC)c2)c2c(ccc4ccccc24)O3)cc1 (configuration not stated)	–	–	39.4	–
COc1ccc(Nc2ncnc3c2C(c2ccc(O)c(OC)c2)c2c(c(=O)oc4ccccc24)O3)cc1 (configuration not stated)	33.2	47.2	92.3	15
COc1ccc(Nc2ncnc3c2C(c2ccc(F)cc2)c2c(c(=O)oc4ccccc24)O3)cc1 (configuration not stated)	24.5	35.1	70.2	50
COc1ccc(Nc2ncnc3c2C(c2ccc(OC)c(OC)c2)C2=C(CCCC2=O)O3)cc1 (configuration not stated)	29.3	57.5	94.2	8
COc1ccc(Nc2ncnc3c2C(c2ccc([N+](=O)[O-])cc2)c2c(c(=O)oc4ccccc24)O3)cc1 (configuration not stated)	22.2	30.5	61.9	64
COc1ccc(Nc2ncnc3c2C(c2cccc4ccccc24)c2c(n[nH]c2C)O3)cc1 (configuration not stated)	–	–	10.1	–

Compound	inhibition at 1 µM [1] [%]	inhibition at 10 µM [2] [%]	inhibition at 100 µM [3] [%]	IC50 [4] [µM]
COc1ccc(Nc2ncnc3c2C(c2ccc(O)c(O)c2)c2c(ccc4ccccc24)O3)cc1 (configuration not stated)	–	–	37.2	–
COc1ccc(Nc2ncnc3c2C(c2cccc(Cl)c2)c2c(ccc4ccccc24)O3)cc1 (configuration not stated)	–	–	17.6	–
COc1ccc(Nc2ncnc3c2C(c2ccc(Cl)cc2)c2c(n[nH]c2C)O3)cc1 (configuration not stated)	–	–	32.2	–
COc1ccc(Nc2ncnc3c2C(c2cccc(O)c2)c2c(c(=O)oc4ccccc24)O3)cc1 (configuration not stated)	28.5	39.5	81.3	35
COc1ccc(Nc2ncnc3c2C(c2ccc(OC)c(OC)c2)c2c(n[nH]c2C)O3)cc1 (configuration not stated)	23.6	31.4	63.7	64
COc1ccc(Nc2ncnc3c2C(c2ccc(O)cc2)c2c(ccc4ccccc24)O3)cc1 (configuration not stated)	–	–	29.1	–
COc1ccc(Nc2ncnc3c2C(c2ccc(O)c(OC)c2)c2c(n[nH]c2C)O3)cc1 (configuration not stated)	–	32.5	65.5	60
COc1ccc(Nc2ncnc3c2C(c2ccc(Br)cc2)c2c(c(=O)oc4ccccc24)O3)cc1 (configuration not stated)	22.2	32.4	65.8	60
COc1ccc(Nc2ncnc3c2C(c2cc(OC)c(OC)c(OC)c2)C2=C(CCCC2=O)O3)cc1 (configuration not stated)	27.4	38	76.8	40
COc1ccc(Nc2ncnc3c2C(c2cccc(C)c2)c2c(ccc4ccccc24)O3)cc1 (configuration not stated)	–	–	22.6	–
COc1ccc(Nc2ncnc3c2C(c2cc4ccccc4[nH]2)c2c(n[nH]c2C)O3)cc1 (configuration not stated)	–	–	11.2	–
COc1ccc(Nc2ncnc3c2C(c2ccc(OC)cc2)c2c(n[nH]c2C)O3)cc1 (configuration not stated)	20.1	29.3	58.4	–
COc1ccc(Nc2ncnc3c2C(c2ccc(OC)cc2)C2=C(CCCC2=O)O3)cc1 (configuration not stated)	32.3	43.5	87.4	25
COc1ccc(Nc2ncnc3c2C(c2ccc(OC)cc2)c2c(c(=O)oc4ccccc24)O3)cc1 (configuration not stated)	32.4	43.7	85.3	24
COc1ccc(Nc2ncnc3c2C(c2ccc(Br)cc2)c2c(n[nH]c2C)O3)cc1 (configuration not stated)	–	–	30.3	–
COc1ccc(Nc2ncnc3c2C(c2ccc(Cl)cc2)c2c(c(=O)oc4ccccc24)O3)cc1 (configuration not stated)	21.3	33.5	67.2	56
COc1ccc(Nc2ncnc3c2C(c2cc(OC)c(OC)c(OC)c2)c2c(ccc4ccccc24)O3)cc1 (configuration not stated)	–	–	25.8	–
COc1ccc(Nc2ncnc3c2C(c2ccccc2)c2c(c(=O)oc4ccccc24)O3)cc1 (configuration not stated)	25.1	36.4	72.8	40
COc1ccc(Nc2ncnc3c2C(c2cccc(Cl)c2)c2c(c(=O)oc4ccccc24)O3)cc1 (configuration not stated)	23.2	34.5	69.6	54
COc1ccc(Nc2ncnc3c2C(c2cccs2)c2c(n[nH]c2C)O3)cc1 (configuration not stated)	–	–	19.8	–
COc1ccc(Nc2ncnc3c2C(c2ccc(O)c(OC)c2)c2c(ccc4ccccc24)O3)cc1 (configuration not stated)	–	–	33.8	–
COc1ccc(Nc2ncnc3c2C(c2cccc([N+](=O)[O-])c2)c2c(ccc4ccccc24)O3)cc1 (configuration not stated)	–	–	13.3	–
COc1ccc(Nc2ncnc3c2C(c2ccc(O)c(O)c2)c2c(c(=O)oc4ccccc24)O3)cc1 (configuration not stated)	35	45.9	90.4	18
COc1ccc(Nc2ncnc3c2C(c2ccc(OC)cc2)c2c(ccc4ccccc24)O3)cc1 (configuration not stated)	–	–	32.6	–
O=c1cc(-c2ccc(O)cc2)oc2cc(O)cc(O)c12 [APIGENIN]	–	–	–	10.2
